Values joined by “and” are separate entries in the source; they are usually repeats but may differ in a detail not shown here. Equal values may be shown once. Where no end group is shown, it is not given here.
Tested on: MC/9 mast cells
Assay type: cell-based, murine
Design: MCD10: concentration of peptide necessary to induce degranulation of 10% of mast cells: unit not given here
Settings: not given

Substance	% MC/9 Degranulation	% Mast Cell Degranulation	MCD10: concentration of peptide necessary to induce degranulation of 10% of mast cells
INLKALAALAKALLINLKALAALAKALL-NH2 [MP7-2X]	33.60% and 47.80%	–	–
I N L K A L A A L A K L I L [MP-12L-Ac]	–	1.07%	–
I N L K A L A A L A K W I L [MP-12W-Ac]	–	38.76%	–
I N L K A L A A L A K A L L [MP7-Ac]	–	0.31%	–
INLKALAALAKVIL [MP-12V, I N L K A L A A L A K V I L]	–	–	14.87
I N L K A L A A L A K L I L [MP-12L-NH2]	–	83.36% and 67.37% and 51.29%	–
I N L K A L A A L A K F I L [MP-12F-Ac-NH2]	–	87.65% and 83.36% and 67.41%	–
I N L K A L A A L A K K F L (INLKALAALAKKFL) [MP-13F]	–	–	24.37
I N L K A L A A L A K R I L (INLKALAALAKRIL) [MP-12R]	–	–	23.29
I N L K A L A A L A K I I L [MP-12I-OH]	–	0%	–
I N L K A W A A L A K K I L (INLKAWAALAKKIL) [MP-6W]	–	–	24.99
I N L K A L A A L A K W I L [MP-12W-OH]	–	23.83%	–
INLKALAALAKALLGGGINLKALAALAKALL-NH2 [MP7-2XB]	40.49% and 56.90%	–	–
I N L K A L A A L A K G I L (INLKALAALAKGIL) [MP-12G]	–	–	68.76
INLKALAALAKYIL [MP-12Y, I N L K A L A A L A K Y I L]	–	–	4.09
I N L K A L A A L A K K C L (INLKALAALAKKCL) [MP-13C]	–	–	17.27

Substance	% MC/9 Degranulation	% Mast Cell Degranulation	MCD10: concentration of peptide necessary to induce degranulation of 10% of mast cells
I N L K A L A A L A K L I L [MP-12L-OH]	–	21.36%	–
INLKALAALAKALLSGGRGGINLKALAALAKALL-NH2 [MP7-2XA]	50.20% and 78.40%	–	–
I N L K A L A A L A K I I L [MP-12I-Ac]	–	0%	–
I N L K A L A A L A K I I L [MP-12I-NH2]	–	81.66% and 70.13% and 49.9%	–
INLKALAALAKCIL [MP-12C, I N L K A L A A L A K C I L]	–	–	5.33
I N L K A L A A L A K F I L [MP-12F-NH2]	–	95.24% and 87.57% and 70.01%	–
I N L K A L A A L A K K M L (INLKALAALAKKML) [MP-13M]	–	–	64.54
I N L K A L A A L A K F I L [MP-12F-OH]	–	38.07%	–
I N L K A L A A L A K N I L (INLKALAALAKNIL) [MP-12N]	–	–	31.86
I N L K A L A A L A K I I L [MP-12I-Ac-NH2]	–	87.97% and 67.63% and 46.09%	–
INLKALAALAKMIL [MP-12M, I N L K A L A A L A K M I L]	–	–	2.96
I N L K A F A A L A K K I L (INLKAFAALAKKIL) [MP-6F]	–	–	58.40
I N L K A L A A L A K S I L (INLKALAALAKSIL) [MP-12S]	–	–	22.50
I N L K A L A A L A K K L L (INLKALAALAKKLL) [MP-13L]	–	–	22.46
INLKALAALAKAIL [MP-12A, I N L K A L A A L A K A I L]	–	–	8.88
I N L K A L A A L A K Q I L (INLKALAALAKQIL) [MP-12Q]	–	–	18.73

Same assay, conditions: read-out: MCD50: concentration of peptide necessary to induce degranulation of 50% of mast cells

Substance	EC50
INLKALAALAKVIL [MP-12V, I N L K A L A A L A K V I L]	41.2 µM
INLKALAALAKYIL [MP-12Y, I N L K A L A A L A K Y I L]	11.1 µM
INLKALAALAKCIL [MP-12C, I N L K A L A A L A K C I L]	23.8 µM
INLKALAALAKMIL [MP-12M, I N L K A L A A L A K M I L]	11.3 µM
INLKALAALAKAIL [MP-12A, I N L K A L A A L A K A I L]	25.3 µM

From patent publication US9301999B2 (priority 2009, dated 2016)
